Values belong to the molecule of their own block, whether it stands above or below them.
Legend:
[1] = target: T1, MMP-13 (Homo sapiens, UniProt P45452); test: Fluorometric enzyme inhibition assay on MMP-13; assay type: biochemical; conditions: mean ± SD of three independent experiments
T1 construct: purchased Merck Millipore (Burlington, MA, USA)
Text: ARP100 [26], a hydroxamate-based MMP inhibitor previously developed by our research group, was used in the same assay conditions as the reference compound.
(§1) Recombinant human MMP-14 catalytic domain was a kind gift from Prof. Gillian Murphy (Department of Oncology, University of Cambridge, UK). Pro-MMP-1, pro-MMP-2, pro-MMP-9, and pro-MMP-13 were purchased from Merck Millipore (Burlington, MA, USA). p-Aminophenylmercuric acetate (APMA) was from Sigma-Aldrich (St. Louis, MO, USA).
(§2) For assay measurements, the purchased compound stock solutions (10 mM in DMSO) were further diluted for each MMP in the fluorometric assay buffer (FAB: Tris 50 mM, pH = 7.5, NaCl 150 mM, CaCl2 10 mM, Brij 35 0.05%, and DMSO 1%), following the protocol already reported. […] The assays were performed in triplicate with a total volume of 200 μL per well in 96-well microtitre plates (Corning, black, NBS, Turin, Italy). The MMP inhibition activity was expressed in relative fluorescent units (RFU). The percentage of inhibition was calculated from control reactions without the inhibitor. The inhibitory effect of the tested compounds was routinely estimated at a concentration of 100 μM on MMP-13. […] Results were analyzed using SoftMax Pro software version 5.4.3 (Molecular Devices, Sunnyvale, CA, USA) and Prism Software version 5.0 (GraphPad Software, Inc., La Jolla, CA, USA).

[2] = target: MMP-9 (Homo sapiens, UniProt P14780); test: Fluorometric enzyme inhibition assay on MMP-9
Chain of MMP-9 (P14780 107-707 limits assumed): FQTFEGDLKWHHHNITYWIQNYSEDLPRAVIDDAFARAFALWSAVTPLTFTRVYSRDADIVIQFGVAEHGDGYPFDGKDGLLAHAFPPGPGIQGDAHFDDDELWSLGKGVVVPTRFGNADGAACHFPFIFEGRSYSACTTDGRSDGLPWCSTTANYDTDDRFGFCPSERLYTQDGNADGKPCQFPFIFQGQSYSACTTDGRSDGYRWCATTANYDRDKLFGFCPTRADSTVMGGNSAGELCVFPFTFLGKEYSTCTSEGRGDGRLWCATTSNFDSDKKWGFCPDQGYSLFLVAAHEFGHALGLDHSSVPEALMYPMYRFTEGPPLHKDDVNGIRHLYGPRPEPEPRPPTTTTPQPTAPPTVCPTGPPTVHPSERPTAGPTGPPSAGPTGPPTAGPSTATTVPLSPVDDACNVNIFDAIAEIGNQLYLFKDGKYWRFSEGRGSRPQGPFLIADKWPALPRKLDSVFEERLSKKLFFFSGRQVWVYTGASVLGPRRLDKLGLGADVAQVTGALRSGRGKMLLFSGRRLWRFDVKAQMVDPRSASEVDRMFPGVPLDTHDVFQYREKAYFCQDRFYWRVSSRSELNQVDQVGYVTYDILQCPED

[3] = target: T2, MMP-2 (Homo sapiens, UniProt P08253); test: Fluorometric enzyme inhibition assay on MMP-2
T2 sequence (P08253 110-660): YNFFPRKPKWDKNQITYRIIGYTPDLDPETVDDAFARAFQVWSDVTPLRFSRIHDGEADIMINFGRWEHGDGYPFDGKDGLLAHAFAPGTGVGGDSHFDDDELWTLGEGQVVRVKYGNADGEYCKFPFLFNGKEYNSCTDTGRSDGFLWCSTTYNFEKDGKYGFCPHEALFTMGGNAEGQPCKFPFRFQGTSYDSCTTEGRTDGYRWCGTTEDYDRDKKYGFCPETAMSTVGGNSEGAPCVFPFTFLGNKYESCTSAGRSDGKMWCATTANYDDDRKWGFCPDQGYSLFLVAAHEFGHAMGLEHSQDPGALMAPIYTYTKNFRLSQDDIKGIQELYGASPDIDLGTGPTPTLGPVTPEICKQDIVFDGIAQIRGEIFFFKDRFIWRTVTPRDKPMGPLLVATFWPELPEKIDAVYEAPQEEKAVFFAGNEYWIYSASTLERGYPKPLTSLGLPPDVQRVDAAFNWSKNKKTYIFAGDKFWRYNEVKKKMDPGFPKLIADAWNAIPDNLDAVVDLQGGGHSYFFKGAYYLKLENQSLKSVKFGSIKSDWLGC

[4] = target: T3, MMP-1 (Homo sapiens, UniProt P03956); test: Fluorometric enzyme inhibition assay on MMP-1
T3 sequence (P03956 100-469): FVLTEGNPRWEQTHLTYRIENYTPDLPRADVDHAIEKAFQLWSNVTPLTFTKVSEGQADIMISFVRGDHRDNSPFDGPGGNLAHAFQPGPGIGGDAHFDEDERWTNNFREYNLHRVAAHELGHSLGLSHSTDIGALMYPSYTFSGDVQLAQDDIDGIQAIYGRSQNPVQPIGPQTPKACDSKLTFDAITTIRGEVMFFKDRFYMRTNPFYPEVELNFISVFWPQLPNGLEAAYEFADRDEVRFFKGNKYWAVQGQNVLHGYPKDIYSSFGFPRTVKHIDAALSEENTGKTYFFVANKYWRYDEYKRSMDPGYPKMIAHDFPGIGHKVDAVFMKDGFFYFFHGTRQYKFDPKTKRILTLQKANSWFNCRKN

[5] = target: T4, MMP-14 (Homo sapiens, UniProt P50281); test: Fluorometric enzyme inhibition assay on MMP-14 catalytic domain; assay type: biochemical; conditions: mean ± SD of three independent experiments
T4 construct: Recombinant human MMP-14 catalytic domain; gift from Prof; Gillian Murphy (Department of Oncology, University of Cambridge, UK)
Experimental: as §1, §2

SMILES: C/C(=N\NC(=O)Cc1ccc(-c2nc(C)no2)cc1)c1ccc(NC(=O)c2ccc(Br)o2)cc1 [Compound 13e, (E)-5-bromo-N-(4-(1-(2-(2-(4-(3-methyl-1,2,4-oxadiazol-5-yl)phenyl)acetyl)hydrazineylidene)ethyl)phenyl)furan-2-carboxamide]
- IC50 [1]: > 100 µM
- melting point: 252 to 255 °C

SMILES: O=C(Cc1ccc(-c2nnn[nH]2)cc1)N/N=C/c1ccc(CNC(=O)c2ccc(Br)o2)cc1 [Compound 13o, (E)-N-(4-((2-(2-(4-(1H-tetrazol-5-yl)phenyl)acetyl)hydrazineylidene)methyl)benzyl)-5-bromofuran-2-carboxamide]
- melting point: 245 to 248 °C

SMILES: N#C/C(=C\c1cn(Cc2ccc(Cl)cc2)c2ccccc12)c1nn(-c2ccccc2)c(N)c1C#N [Compound 11]
- IC50 [2]: 66 ± 4.6 µM
- IC50 [3]: 60 ± 4.6 µM
- IC50 [4]: 99 ± 8 µM
- IC50 [5]: 94 ± 5.5 µM

SMILES: O=C(Cc1ccc(C(=O)O)cc1)N/N=C/c1ccc(CNC(=O)c2ccc(Br)o2)cc1 [Compound 13m, (E)-4-(2-(2-(4-((5-bromofuran-2-carboxamido)methyl)benzylidene)hydrazineyl)-2-oxoethyl)benzoic acid]
- IC50 [2]: 50 ± 3.2 µM
- IC50 [3]: 3.6 ± 0.4 µM
- IC50 [4]: 177 ± 20 µM
- IC50 [5]: > 200 µM

SMILES: O=C(COC(=O)c1ccccc1Sc1ccc([N+](=O)[O-])cc1)c1ccc(-c2ccccc2)cc1 [Compound 12]
- IC50 [2]: 72 ± 4.8 µM
- IC50 [3]: 47 ± 1.6 µM
- IC50 [4]: 75 ± 4 µM
- IC50 [5]: 67 ± 4.6 µM

SMILES: C/C(=N\NC(=O)Cc1ccc(-c2nc(C)no2)cc1)c1ccc(NC(=O)c2ccc(CO)o2)cc1 [Compound 13f, (E)-5-(hydroxymethyl)-N-(4-(1-(2-(2-(4-(3-methyl-1,2,4-oxadiazol-5-yl)phenyl)acetyl)hydrazineylidene)ethyl)phenyl)furan-2-carboxamide]
- melting point: 243 to 246 °C

SMILES: C/C(=N\NC(=O)Cc1ccc(C(=O)O)cc1)c1ccc(NC(=O)c2ccc(Br)o2)cc1 [Compound 13h, (E)-4-(2-(2-(1-(4-(5-bromofuran-2-carboxamido)phenyl)ethylidene)hydrazineyl)-2-oxoethyl)benzoic acid]
- melting point: 292 to 295 °C

More lines, now with the values ahead:

- IC50 [2]: 68 ± 3 µM
- IC50 [3]: 99 ± 6 µM
- IC50 [4]: 91 ± 0.8 µM
- IC50 [5]: 63 ± 5.4 µM
SMILES: C/C(=N\NC(=O)Cc1ccc([N+](=O)[O-])cc1)c1ccc(NC(=O)c2ccc(Br)o2)cc1 [Compound 13, (E)-5-bromo-N-(4-(1-(2-(2-(4-nitrophenyl)acetyl)hydrazineylidene)ethyl)phenyl)furan-2-carboxamide]

- IC50 [1]: 40 ± 3.5 µM
- melting point: 246 to 248 °C
SMILES: O=C(Cc1ccc([N+](=O)[O-])cc1)N/N=C/c1ccc(NC(=O)c2ccc(CO)o2)cc1 [Compound 13d, (E)-5-(hydroxymethyl)-N-(4-((2-(2-(4-nitrophenyl)acetyl)hydrazineylidene)methyl)phenyl) furan-2-carboxamide]

- melting point: 277 to 279 °C
SMILES: O=C(Cc1ccc([N+](=O)[O-])cc1)N/N=C/c1ccc(NC(=O)c2ccc(Br)o2)cc1 [Compound 13c, (E)-5-bromo-N-(4-((2-(2-(4-nitrophenyl)acetyl)hydrazineylidene)methyl)phenyl)furan-2-carboxamide]

- melting point: 232 to 235 °C
SMILES: C/C(=N\NC(=O)Cc1ccc(C(=O)O)cc1)c1ccc(NC(=O)c2ccc(CO)o2)cc1 [Compound 13i, (E)-4-(2-(2-(1-(4-(5-(hydroxymethyl)furan-2-carboxamido)phenyl)ethylidene)hydrazineyl)-2-oxoethyl)benzoic acid]

- IC50 [1]: > 100 µM
- melting point: 255 to 258 °C
SMILES: C/C(=N\NC(=O)Cc1ccc([N+](=O)[O-])cc1)c1ccc(NC(=O)c2ccc(S(N)(=O)=O)o2)cc1 [Compound 13a]

- IC50 [1]: > 100 µM
- melting point: 238 to 241 °C
SMILES: C/C(=N\NC(=O)Cc1ccc([N+](=O)[O-])cc1)c1ccc(NC(=O)c2ccc(CO)o2)cc1 [Compound 13b, (E)-5-(hydroxymethyl)-N-(4-(1-(2-(2-(4nitrophenyl)acetyl)hydrazineylidene)ethyl)phenyl) furan-2-carboxamide]

- melting point: 232 to 235 °C
SMILES: Cc1noc(-c2ccc(CC(=O)N/N=C/c3ccc(NC(=O)c4ccc(CO)o4)cc3)cc2)n1 [Compound 13g, (E)-5-(hydroxymethyl)-N-(4-((2-(2-(4-(3-methyl-1,2,4-oxadiazol-5-yl)phenyl)acetyl) hydrazono)methyl)phenyl)furan-2-carboxamide]

- melting point: 262 to 265 °C
SMILES: O=C(Cc1ccc(-c2nnn[nH]2)cc1)N/N=C/c1ccc(NC(=O)c2ccc(Br)o2)cc1 [Compound 13n, (E)-N-(4-((2-(2-(4-(1H-tetrazol-5-yl)phenyl)acetyl)hydrazineylidene)methyl)phenyl)-5-bromofuran-2-carboxamide]

- melting point: 307 to 310 °C
SMILES: O=C(Cc1ccc(C(=O)O)cc1)N/N=C/c1ccc(NC(=O)c2ccc(Br)o2)cc1 [Compound 13l, (E)-4-(2-(2-(4-(5-bromofuran-2-carboxamido)benzylidene)hydrazineyl)-2-oxoethyl)benzoic acid]
